Measured values from PubChem BioAssay (NCI).
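Cells were grown in 96-well plates and exposed to each compound for 48 hours at five concentrations; endpoints were interpolated linearly between bracketing concentrations, or set to the highest concentration if not reached. TGI marks complete inhibition of growth.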

What was measured:
Test in all cases: NCI-60 cell line screen, 48 h
K-562 leukemia = test system: K-562 leukemia
M14 melanoma = test system: M14 melanoma
SK-MEL-5 melanoma = test system: SK-MEL-5 melanoma
SF-268 CNS = test system: SF-268 CNS
KM12 colon = test system: KM12 colon
SW-620 colon = test system: SW-620 colon
SN12C renal = test system: SN12C renal
SK-OV-3 ovarian = test system: SK-OV-3 ovarian
UACC-257 melanoma = test system: UACC-257 melanoma
NCI-H522 lung = test system: NCI-H522 lung
MDA-MB-231 breast = test system: MDA-MB-231 breast
HCT-15 colon = test system: HCT-15 colon
U251 CNS = test system: U251 CNS
PC-3 prostate = test system: PC-3 prostate
DU-145 prostate = test system: DU-145 prostate
SNB-75 CNS = test system: SNB-75 CNS
MOLT-4 leukemia = test system: MOLT-4 leukemia
HCT-116 colon = test system: HCT-116 colon
HS 578T breast = test system: HS 578T breast
OVCAR-3 ovarian = test system: OVCAR-3 ovarian
OVCAR-4 ovarian = test system: OVCAR-4 ovarian
MALME-3M melanoma = test system: MALME-3M melanoma
EKVX NSCLC = test system: EKVX NSCLC
HOP-92 NSCLC = test system: HOP-92 NSCLC
LOX IMVI melanoma = test system: LOX IMVI melanoma
UO-31 renal = test system: UO-31 renal
SR leukemia = test system: SR leukemia
NCI-H23 lung = test system: NCI-H23 lung
NCI-H460 lung = test system: NCI-H460 lung
TK-10 renal = test system: TK-10 renal
A549 NSCLC = test system: A549 NSCLC
BT-549 breast = test system: BT-549 breast
MCF7 breast = test system: MCF7 breast
NCI-H226 lung = test system: NCI-H226 lung
SF-539 CNS = test system: SF-539 CNS
HT29 colon = test system: HT29 colon
MDA-MB-435 = test system: MDA-MB-435
A498 renal = test system: A498 renal
UACC-62 melanoma = test system: UACC-62 melanoma
T-47D breast = test system: T-47D breast
RXF 393 renal = test system: RXF 393 renal
NCI/ADR-RES ovarian = test system: NCI/ADR-RES ovarian
OVCAR-8 ovarian = test system: OVCAR-8 ovarian
786-0 renal = test system: 786-0 renal
MDA-N = test system: MDA-N
SNB-19 CNS = test system: SNB-19 CNS
ACHN renal = test system: ACHN renal
HL-60(TB) leukemia = test system: HL-60(TB) leukemia
HOP-62 NSCLC = test system: HOP-62 NSCLC
RPMI-8226 leukemia = test system: RPMI-8226 leukemia
CAKI-1 renal = test system: CAKI-1 renal
SK-MEL-28 melanoma = test system: SK-MEL-28 melanoma
IGROV1 ovarian = test system: IGROV1 ovarian
SK-MEL-2 melanoma = test system: SK-MEL-2 melanoma
COLO 205 colon = test system: COLO 205 colon
SF-295 CNS = test system: SF-295 CNS
OVCAR-5 ovarian = test system: OVCAR-5 ovarian
CCRF-CEM leukemia = test system: CCRF-CEM leukemia
HCC-2998 colon = test system: HCC-2998 colon

Compound `Cc1cc2sc(C)[n+](CCCOS(=O)(=O)[O-])c2cc1C` has a TGI (K-562 leukemia) of over 100 µM, a TGI (M14 melanoma) of over 100 µM and a TGI (SK-MEL-5 melanoma) of over 100 µM. For the same compound, the TGI (SF-268 CNS) was over 100 µM, the TGI (KM12 colon) was over 100 µM and the TGI (SW-620 colon) was over 100 µM. It also gave a TGI (SN12C renal) of over 100 µM, a TGI (SK-OV-3 ovarian) of over 100 µM and a TGI (UACC-257 melanoma) of over 100 µM. For the same compound, the TGI (NCI-H522 lung) was over 100 µM, the TGI (MDA-MB-231 breast) was over 100 µM and the TGI (HCT-15 colon) was over 100 µM. The TGI (U251 CNS) was over 100 µM, the TGI (PC-3 prostate) was over 100 µM and the TGI (DU-145 prostate) was over 100 µM. The TGI (SNB-75 CNS) was over 100 µM, the TGI (MOLT-4 leukemia) was over 100 µM and the TGI (HCT-116 colon) was over 100 µM. The TGI (HS 578T breast) was over 100 µM, the TGI (OVCAR-3 ovarian) was over 100 µM and the TGI (OVCAR-4 ovarian) was over 100 µM. For the same compound, the TGI (MALME-3M melanoma) was over 100 µM, the TGI (EKVX NSCLC) was over 100 µM and the TGI (HOP-92 NSCLC) was over 100 µM. It also gave a TGI (LOX IMVI melanoma) of over 100 µM, a TGI (UO-31 renal) of over 100 µM and a TGI (SR leukemia) of over 100 µM. It also gave a TGI (NCI-H23 lung) of over 100 µM, a TGI (NCI-H460 lung) of over 100 µM and a TGI (TK-10 renal) of over 100 µM. The TGI (A549 NSCLC) was over 100 µM, the TGI (BT-549 breast) was over 100 µM and the TGI (MCF7 breast) was over 100 µM. It also gave a TGI (NCI-H226 lung) of over 100 µM, a TGI (SF-539 CNS) of over 100 µM and a TGI (HT29 colon) of over 100 µM. It also gave a TGI (MDA-MB-435) of over 100 µM, a TGI (A498 renal) of over 100 µM and a TGI (UACC-62 melanoma) of over 100 µM. For the same compound, the TGI (T-47D breast) was over 100 µM, the TGI (RXF 393 renal) was over 100 µM and the TGI (NCI/ADR-RES ovarian) was over 100 µM. It also gave a TGI (OVCAR-8 ovarian) of over 100 µM, a TGI (786-0 renal) of over 100 µM and a TGI (MDA-N) of over 100 µM. It also gave a TGI (SNB-19 CNS) of over 100 µM, a TGI (ACHN renal) of over 100 µM and a TGI (HL-60(TB) leukemia) of over 100 µM. It also gave a TGI (HOP-62 NSCLC) of over 100 µM, a TGI (RPMI-8226 leukemia) of over 100 µM and a TGI (CAKI-1 renal) of over 100 µM. The TGI (SK-MEL-28 melanoma) was over 100 µM, the TGI (IGROV1 ovarian) was over 100 µM and the TGI (SK-MEL-2 melanoma) was over 100 µM. The TGI (COLO 205 colon) was over 100 µM, the TGI (SF-295 CNS) was over 100 µM and the TGI (OVCAR-5 ovarian) was over 100 µM.
Compound `COc1cc(/C=C2\C(=O)N(c3ccccc3Cl)C(c3ccccc3)S2(=O)=O)cc(OC)c1OC` (configuration not stated) has a TGI (K-562 leukemia) of 94.9 µM, a TGI (M14 melanoma) of over 100 µM and a TGI (SK-MEL-5 melanoma) of 45.5 µM. It also gave a TGI (SF-268 CNS) of over 100 µM, a TGI (KM12 colon) of 83.5 µM and a TGI (SW-620 colon) of over 100 µM. For the same compound, the TGI (SN12C renal) was 60.6 µM, the TGI (SK-OV-3 ovarian) was over 100 µM and the TGI (UACC-257 melanoma) was over 100 µM. It also gave a TGI (CCRF-CEM leukemia) of 48.9 µM, a TGI (NCI-H522 lung) of 46.5 µM and a TGI (MDA-MB-231 breast) of over 100 µM. The TGI (HCT-15 colon) was over 100 µM, the TGI (U251 CNS) was 81.8 µM and the TGI (DU-145 prostate) was over 100 µM. For the same compound, the TGI (MOLT-4 leukemia) was 36.4 µM, the TGI (HCT-116 colon) was over 100 µM and the TGI (HS 578T breast) was over 100 µM. For the same compound, the TGI (HCC-2998 colon) was over 100 µM, the TGI (OVCAR-3 ovarian) was over 100 µM and the TGI (OVCAR-4 ovarian) was over 100 µM. It also gave a TGI (MALME-3M melanoma) of 89.3 µM, a TGI (EKVX NSCLC) of over 100 µM and a TGI (HOP-92 NSCLC) of over 100 µM. The TGI (LOX IMVI melanoma) was 50.5 µM, the TGI (UO-31 renal) was over 100 µM and the TGI (NCI-H23 lung) was over 100 µM. For the same compound, the TGI (NCI-H460 lung) was over 100 µM, the TGI (TK-10 renal) was over 100 µM and the TGI (A549 NSCLC) was over 100 µM. For the same compound, the TGI (BT-549 breast) was over 100 µM, the TGI (MCF7 breast) was over 100 µM and the TGI (NCI-H226 lung) was over 100 µM. The TGI (SF-539 CNS) was 38.3 µM, the TGI (HT29 colon) was 52.2 µM and the TGI (MDA-MB-435) was over 100 µM. For the same compound, the TGI (A498 renal) was over 100 µM, the TGI (UACC-62 melanoma) was over 100 µM and the TGI (T-47D breast) was over 100 µM. The TGI (RXF 393 renal) was 76.7 µM, the TGI (NCI/ADR-RES ovarian) was over 100 µM and the TGI (OVCAR-8 ovarian) was over 100 µM. The TGI (786-0 renal) was over 100 µM, the TGI (MDA-N) was 42.5 µM and the TGI (SNB-19 CNS) was over 100 µM. For the same compound, the TGI (ACHN renal) was over 100 µM, the TGI (HL-60(TB) leukemia) was over 100 µM and the TGI (HOP-62 NSCLC) was over 100 µM. It also gave a TGI (RPMI-8226 leukemia) of 42.9 µM, a TGI (CAKI-1 renal) of over 100 µM and a TGI (SK-MEL-28 melanoma) of over 100 µM. For the same compound, the TGI (SK-MEL-2 melanoma) was over 100 µM, the TGI (COLO 205 colon) was over 100 µM and the TGI (SF-295 CNS) was over 100 µM. It also gave a TGI (OVCAR-5 ovarian) of over 100 µM.
